Reference: US20180305669A1, “MICROTISSUE FORMATION USING STEM CELL-DERIVED HUMAN HEPATOCYTES” (FUJIFILM Cellular Dynamics, Inc., priority 2015, published 2018)

How the values were obtained:
[1] = tested on: iCell Hepatocytes
[2] = tested on: CYP1A2; assay: P450-GLO CYP1A2 assay, drug-induced CYP activity in 3-D microtissue of iCell Hepatocytes; conditions: day 6 spheroids, 20% GELTREX, about 0.1 to 100 μM for about 24 hours

| induction of CYP1A2 activity [2] | SMILES | hepatotoxicity response [1] |
| --- | --- | --- |
|  | O=C(O)Cc1ccccc1Nc1c(Cl)cccc1Cl [Diclofenac] | Increased sensitivity |
| about 2.5 fold | COc1ccc2[nH]c([S+]([O-])Cc3ncc(C)c(OC)c3C)nc2c1 (stereo not drawn) [Omeprazole] |  |
|  | Cc1ccc(C(=O)c2cc(O)c(O)c([N+](=O)[O-])c2)cc1 [Tolcapone] | Increased sensitivity |
